# Reference: article PMC9668969 (Nature Communications, 2022)
# Test system: WT ELIC
# Assay: Fluorescence stopped-flow liposomal Tl+ flux assay, symmetric liposomes
# Type: biochemical, Erwinia chrysanthemi
# Protocol: The fluorescence sequential-mixing stopped-flow liposomal flux measurements were carried using an SX20 stopped-flow spectrofluorometer (Applied Photophysics) and Pro-Data SX software[13],[30]. 7.5 mg of the respective lipid mixture (POPC, 1:1 POPC: POPE, 1:1 POPC:POPG, 3:1 POPC:POPE, 3:1 POPC:POPG, 2:1:1 POPC:POPE:POPG) was dried in a glass vial to a thin film under a constant stream of N2. The lipids were then further dried under vacuum in a desiccator overnight. The following day the lipids were hydrated in 500 µl of reconstitution buffer (100 mM NaNO3, 10 mM HEPES, pH 7) (Buffer R), 250 µl of 75 mM 8-Aminonaphthalene-1,3,6-Trisulfonic Acid (ANTS, ThermoFisher Scientific) in buffer R, and doped with ~18 mg of CHAPS (Anatrace). The mixture was vortexed and then sonicated with heat until completely solubilized. Following the sonication, the solution was brought to RT then 3.5 µl of 6.7 mg/ml ELIC in Buffer A with 0.02% DDM was added (3 µg per mg of lipid). This combined solution was incubated at RT for 30 min, followed by the addition of 1 ml of 1:1 v/v SM-2 BioBeads in Buffer R and an additional 250 µl of 75 mM ANTS in Buffer R. This mixture was incubated at RT for 2.5 hr with gentle mixing. The liposome suspension was then extruded with an Avanti mini-extruder and 0.1 µm membrane (30×). The extruded liposomes were stored at 13 °C overnight with gentle rotation. The next day, the liposomes were diluted to 2.5 mL using assay buffer (140 mM NaNO3, 10 mM HEPES, pH 7) (Stopped-flow Buffer A), loaded into a PD-10 desalting column (Cytiva), eluted with 3 mL of Stopped-flow Buffer A and subsequently diluted 5-fold with Stopped-flow Buffer A.
# Using propylamine as the agonist, the assay and analysis was carried out as previously described[13],[30]. ELIC-containing liposomes were first mixed 1:1 with Buffer A containing 2× the concentration of propylamine. After a variable delay of 10 ms to 25 s, the sample was then mixed 1:1 with a quenching buffer (90 mM NaNO3, 50 mM TlNO3, 10 mM HEPES, pH 7), and ANTS fluorescence (ex. 360 nm, fluorescence above 420 nm) was recorded for 1 s. For each delay time, 5 repeat measurements were obtained. The data were collected using Applied Photophysics Pro-Data SX software. The fluorescence quenching traces were fit to a stretched exponential (Eq. 2a) and the rate of Tl^+ influx was determined at 2 ms (Eq. 2b).2a Ft=F∞+F0−F∞⋅e^−t/τ^β 2b kt=β/τ⋅2ms/τ^(β−1) where Ft, F∞, F0 are the fluorescence at time t, final fluorescence and initial fluorescence. τ is the time constant, β the stretched exponential factor, and kt the calculated rate of Tl^+ influx at 2 ms. The time course of desensitization was also fit to a double exponential and a weighted time constant was calculated as was done for the patch-clamp data using Origin 2019b. All replicates were taken from independent samples.
compound,measurement,setting,value
"CCCCCCCC/C=C\CCCCCCCC(=O)OC(COC(=O)CCCCCCCCCCCCCCC)COP(=O)(O)OCC(O)CO (stereo not drawn) [POPG, 1-palmitoyl-2-oleoyl-phosphatidylglycerol]",time constant of desensitization,25% POPG in symmetric liposomes,~ 6 s
same,effect on desensitization,"25–50 mol% in binary mixtures with POPC, 10 mM propylamine",slowed desensitization
same,time constant of desensitization,50% POPG in symmetric liposomes,~ 12 s
